Where two headings read alike, the source gives them in different places. Each block holds one compound with its values, some of them ahead of it.
Key:
LNCaP cells [1] = tested on: LNCaP cells; set-up: method as in PMID 33288740; conditions: cited from earlier work
LNCaP cells [2] = assay: DNA synthesis (BrdU incorporation) in LNCaP cells; type: cell-based, human; conditions: 10 nM R1881, compound 1 μM
Description: […] Cells were fixed, permeabilized, washed and the BrdU incorporation was analysed as reported. Nuclei were stained with Hoechst and cells on coverslips were scored by IF microscopy, using a DMLB Leica (Leica) fluorescent microscope, equipped with HCX PL Apo 63 × oil objective. Different fields from each coverslip were analyzed and BrdU incorporation was calculated by the formula: percentage of BrdU-positive cells = (No. of BrdU-positive cells/No. of total cells) × 100. Data in the graphs derive from at least 1000 scored cells for each coverslip. Representative images were captured using DC480 camera (Leica) and acquired using Leica Suite software. They are representative of three different experiments.

human TRPM8 [3] = molecular target: T1, human TRPM8 (Homo sapiens, UniProt Q7Z2W7); assay: Patch-clamp assay on TRPM8 channels (HEK-293/TRPM8 cells, menthol-evoked currents); type: cell-based; conditions: for inhibitory effect on menthol-evoked TRPM8 currents: dependence on concentration
T1 construct: expressed in transfected cells; host or cells: HEK-293/TRPM8 exon1 K3 cells
Description: Patch clamp experiments for compounds 4, 5 and 9 were done as described. HEK-293/TRPM8 exon 1 cells were seeded 3 or 4 days before experiment at a concentration of 4 and 2.5 million cells, respectively, onto a T225 flask. Before each experiment, cells were washed two times with D-PBS without Ca^2+/Mg^2+ (Euroclone, Milan, Italy) and trypsinized with trypsin−EDTA (Sigma-Aldrich; diluted 1/10). Cells were suspended in 25 mL of EX-CELL ACF CHO medium (Sigma-Aldrich, Milan, Italy), 0.625 mL of HEPES (Lonza, Walkersville, USA), 0.25 mL of 100 × penicillin/streptomycin (Lonza, Walkersville, USA), 0.1 mL of soybean trypsin inhibitor 10 mg/mL (Sigma-Aldrich), and placed on the automated patch-clamp platform (QPatch 16X, Sophion Bioscience, Ballerup, Denmark). A stock solution of L-Menthol (1 M, 100% DMSO), used as reference agonist, was freshly prepared. A diluted stock of 300 mM was prepared from the 1 M stock in 100% DMSO, and a final dilution was obtained using the extracellular solution to give a working concentration of 300 μM (1:1000, 0.1% final DMSO concentration). Stock solutions of the testing compounds (10 mM; 100% DMSO; stored at − 20 °C) were freshly prepared, as well. Further dilution of these stock solutions to a final concentration of 300 μM was performed from the 10 mM stock in 100% DMSO, and the working dilutions were performed just before the experiments using the extracellular solution containing 300 μM menthol. The highest concentration tested was 300 nM, with serial dilutions (1:10). DMSO was balanced to keep it constant throughout all the solutions in the same experiment (0.2% final DMSO concentration). Standard whole-cell voltage clamp experiments were performed at room temperature using the multihole technology. For the voltage clamp experiments on human TRPM8, data were sampled at 2 kHz. After establishment of the seal and the passage in the whole cell configuration, the cells were subjected to a voltage ramp (20 ms step at − 60 mV; 100 ms ramp − 60/ + 100 mV; 20 ms step at + 100 mV; return to − 60 mV) every 4 s. The antagonistic effect on human TRPM8 current of target compounds was evaluated after application of the agonist (menthol, 300 μM), in the absence or presence of increasing concentrations of the compound under investigation. Outward current evoked by the voltage ramp, measured in the step at + 100 mV were measured. The intracellular solution contained (mM) 135 CsCl, 10 BAPTA, 10 HEPES, 4 Na2ATP (pH 7.2 with CsOH). The extracellular solution contained (mM) 145 NaCl, 4 KCl, 1 MgCl2, 2 CaCl2, 10 HEPES, 10 glucose (pH 7.4 with NaOH). TRPM8 modulation by final compounds 3 and 6 has been previously determined by patch clamp measurements[29],[30].

AR = assay: Western blot of AR in LNCaP lysate proteins; type: cell-based, human; conditions: Fig 6e, R1881 + enz 10 μM
From the text: (§1) All performed as reported. The mouse monoclonal anti-AR (441; Santa Cruz) antibody was used in Co-Ip or WB approaches. TRPM8 was detected using the rabbit polyclonal anti-TRPM8 (NBP1-97311; Novus Biological). […] The rabbit polyclonal anti-ERK (C-14; Santa Cruz), antibody was used to detect total ERK. FAK and P-Tyr397 FAK were detected using the mouse monoclonal anti-FAK (Clone 77/610077 BD Transduction Laboratories) or anti P-Tyr397 FAK (Clone 14/611722; BD Transduction Laboratories) antibodies, respectively. P-Tyr118 paxillin and total paxillin were detected using the rabbit polyclonal anti-P-Y118 (#2541, Cell Signaling) or the mouse monoclonal anti-paxillin (clone 349; BD Biosciences) antibodies, respectively. […] P-Tyr 416 Src and Src were detected using the rabbit monoclonal anti P-Tyr 416 Src (#6943; Cell Signaling) or the mouse monoclonal anti Src (Calbiochem) antibodies, respectively. ERα and ERβ were detected using the rabbit polyclonal anti-ERα (543; Santa Cruz) or anti-ERβ (Upstate Biotechnology, U.S.A.) antibodies. Cyclin D1, p27 and Cdk4 were stained using the mouse monoclonal anti-cyclin D1 (clone AM29; from Zymed Laboratories Inc.), the rabbit polyclonal anti-p27 (C-19; Santa Cruz) or anti Cdk-4 (c-22; Santa Cruz) antibodies, respectively. The mouse monoclonal anti-tubulin (Sigma-Aldrich) antibody was used to detect tubulin. The ECL system (GE Healthcare) was employed to reveal immune-reactive proteins. Densitometric analysis of WB was performed by using Image J Software (https://imagej.nih.gov/ij).

C4-2B cells = assay: DNA synthesis (BrdU incorporation) in C4-2B cells; type: cell-based, human; conditions: cycling cells, 18 h, 10 μM
Description: Cells on coverslips were pulsed in vivo with BrdU (Sigma-Aldrich; at 100 μM, final concentration) and left unchallenged or challenged with 10 nM R1881 for 18 h, in the absence or presence of the indicated compounds. Cells were fixed, permeabilized, washed and the BrdU incorporation was analysed as reported. Nuclei were stained with Hoechst and cells on coverslips were scored by IF microscopy, using a DMLB Leica (Leica) fluorescent microscope, equipped with HCX PL Apo 63 × oil objective. Different fields from each coverslip were analyzed and BrdU incorporation was calculated by the formula: percentage of BrdU-positive cells = (No. of BrdU-positive cells/No. of total cells) × 100. Data in the graphs derive from at least 1000 scored cells for each coverslip. Representative images were captured using DC480 camera (Leica) and acquired using Leica Suite software. They are representative of three different experiments.

TRPM8 = assay: Western blot of TRPM8 in LNCaP lysate proteins; type: cell-based, human; conditions: Fig 6e, R1881 + enz 10 μM
From the text: as §1

[4] = tested on: FAK, paxillin, ERK, RSK and Src tyrosine kinase; assay: Western blot of androgen-induced rapid actions in LNCaP cells (Fig. 6c); type: cell-based, human; conditions: 10 nM R1881, 10 min, enzalutamide 10 μM
From the text: as §1

PSA = PSA secretion (ELISA) from LNCaP cells; type: cell-based, human; conditions: enzalutamide 10 μM
Description: It was done in culture medium using the PSA ELISA kit (Abnova-Taiwan Corporation, Taiwan), according to the manufacturer’s instructions. Released PSA was analyzed at 450 nm using the EnSpire Multimode Plate Reader (Perkin-Elmer, U.S.A.).

AR/TRPM8 complex = molecular target: T2, AR/TRPM8 complex (Homo sapiens, UniProt Q7Z2W7); assay: Co-IP of AR with TRPM8 in LNCaP cells; type: cell-based; conditions: for AR, Average (n=3) / TRPM8, Average (n=3): Fig 6e, R1881 + enz 10 μM
T2 construct: We here dissected an endogenous non-genomic mechanism of the TRPM8 channel regulation by androgens in PC cells; endogenous in cells; host or cells: LNCaP cells
From the text: as §1

human TRPM8 [5] = molecular target: T1, human TRPM8; conditions: maximal currents at 5 µM compared to L-menthol 100 µM; cited from earlier work
[6] = fourth group of list (probably IP anti-AR)

T2 sequence (Q7Z2W7 whole entry, one chain of several): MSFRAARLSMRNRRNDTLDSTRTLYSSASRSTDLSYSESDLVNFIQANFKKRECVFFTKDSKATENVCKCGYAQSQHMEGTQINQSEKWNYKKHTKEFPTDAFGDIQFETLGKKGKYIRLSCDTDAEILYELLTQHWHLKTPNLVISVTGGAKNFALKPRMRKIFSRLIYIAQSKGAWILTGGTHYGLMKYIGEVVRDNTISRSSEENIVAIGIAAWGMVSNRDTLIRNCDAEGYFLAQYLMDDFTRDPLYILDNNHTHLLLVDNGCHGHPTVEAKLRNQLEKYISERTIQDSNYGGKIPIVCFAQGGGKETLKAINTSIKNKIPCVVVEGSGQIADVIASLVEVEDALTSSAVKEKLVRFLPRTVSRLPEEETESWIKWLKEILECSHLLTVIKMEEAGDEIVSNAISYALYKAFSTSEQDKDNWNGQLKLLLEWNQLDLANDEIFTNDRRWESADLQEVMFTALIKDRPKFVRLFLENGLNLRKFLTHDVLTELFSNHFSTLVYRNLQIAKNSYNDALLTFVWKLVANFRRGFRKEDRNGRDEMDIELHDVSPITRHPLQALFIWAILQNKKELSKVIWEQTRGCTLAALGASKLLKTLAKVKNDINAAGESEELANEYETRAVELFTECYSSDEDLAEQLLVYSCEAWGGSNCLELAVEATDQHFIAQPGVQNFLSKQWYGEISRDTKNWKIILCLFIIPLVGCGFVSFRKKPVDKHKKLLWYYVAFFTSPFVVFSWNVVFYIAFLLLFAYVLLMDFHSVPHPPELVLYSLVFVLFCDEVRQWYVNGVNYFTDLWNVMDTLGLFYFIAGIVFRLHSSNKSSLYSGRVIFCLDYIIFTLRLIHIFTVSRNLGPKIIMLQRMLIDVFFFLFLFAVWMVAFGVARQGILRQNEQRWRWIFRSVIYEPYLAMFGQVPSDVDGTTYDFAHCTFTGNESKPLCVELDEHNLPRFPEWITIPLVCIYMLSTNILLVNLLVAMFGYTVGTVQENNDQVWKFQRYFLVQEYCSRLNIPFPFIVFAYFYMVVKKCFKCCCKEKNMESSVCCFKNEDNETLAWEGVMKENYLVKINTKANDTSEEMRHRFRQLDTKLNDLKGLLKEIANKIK
T1 sequence (Q7Z2W7 whole entry): as the sequence (Q7Z2W7 whole entry, one chain of several) above

SMILES: COc1ccc(NC(=O)[C@@H]2C[C@H](C)CC[C@H]2C(C)C)cc1 [WS-12]
- viability of LNCaP cells (LNCaP cells [1]): slightly modify

- IC50 (human TRPM8 [3]; TRPM8 antagonist, read-out: IC50): 5000 nM
- inhibitory effect on menthol-evoked TRPM8 currents (human TRPM8 [3]): concentration-dependent
SMILES: Cn1cc(CNCCc2ccc(-c3ccccc3)cc2)c2cc(CNc3ccc(F)cc3)ccc21 [Compound 9]
- inhibitory effect on R1881-stimulated DNA synthesis, compared with 3 and 5 (LNCaP cells [2]): stronger

SMILES: O=[N+]([O-])c1ccc(Sc2[nH]c3ccccc3c2CCNCc2ccc(Oc3ccccc3)cc2)c([N+](=O)[O-])c1 [Compound 5]
- IC50 (human TRPM8 [3]; 300 µM menthol-evoked currents, read-out: Potency IC50): 340 ± 26 nM
- IC50 (human TRPM8 [3]; TRPM8 antagonist, menthol-evoked currents, one range for both compounds, read-out: IC50): 204 to 340 nM
- inhibitory effect on menthol-evoked TRPM8 currents (human TRPM8 [3]): concentration-dependent

- androgen-induced AR/TRPM8 complex assembly (AR/TRPM8 complex; 10 nM R1881, 10 min, enzalutamide 10 μM): perturbed
- AR, Average (n=3) (AR/TRPM8 complex; [6]): 1,1
- TRPM8, Average (n=3) (AR/TRPM8 complex; [6]): 0,3
- AR, Average (n=3) (AR/TRPM8 complex; second group of list): 0,1
- TRPM8, Average (n=3) (AR/TRPM8 complex; second group of list): 0,1
- AR, Average (n=3) (AR/TRPM8 complex; third group of list): 1
- TRPM8, Average (n=3) (AR/TRPM8 complex; third group of list): 0
SMILES: CNC(=O)c1ccc(N2C(=S)N(c3ccc(C#N)c(C(F)(F)F)c3)C(=O)C2(C)C)cc1F [Enzalutamide]
- AR, Average (n=3) (AR): 1,1
- BrdU incorporation (C4-2B cells): did not observe any effect
- TRPM8, Average (n=3) (TRPM8): 1,1
- androgen-elicited activation of FAK, paxillin, ERK, RSK and Src [4]: impaired at similar extent
- androgen-induced PSA secretion (PSA; R1881, 48 h): strongly inhibited
- PSA secretion when used alone (PSA; no R1881): Neither the two TRPM8 antagonists, nor enzalutamide did modify such response

SMILES: c1ccc(Oc2ccc(CNCCc3c[nH]c4ccccc34)cc2)cc1 [Compound 3]
- % Efficacy (human TRPM8 [5]): 100.0 ±8.4%
